For 19 compounds, Emax and EC50 results are on record in patent publication US20250101041A1, “POSITIVE ALLOSTERIC MODULATORS OF THE MUSCARINIC ACETYLCHOLINE RECEPTOR M4” (Vanderbilt University, priority 2022, published 2025).

For this test, the target named is T1, human mAChR M4 (Homo sapiens, UniProt P08173).
T1 construct: expressed in transfected cells; host or cells: CHO-K1 (American Type Culture Collection), stably expressing hM4 and Gqi5
T1 sequence (P08173 1-479): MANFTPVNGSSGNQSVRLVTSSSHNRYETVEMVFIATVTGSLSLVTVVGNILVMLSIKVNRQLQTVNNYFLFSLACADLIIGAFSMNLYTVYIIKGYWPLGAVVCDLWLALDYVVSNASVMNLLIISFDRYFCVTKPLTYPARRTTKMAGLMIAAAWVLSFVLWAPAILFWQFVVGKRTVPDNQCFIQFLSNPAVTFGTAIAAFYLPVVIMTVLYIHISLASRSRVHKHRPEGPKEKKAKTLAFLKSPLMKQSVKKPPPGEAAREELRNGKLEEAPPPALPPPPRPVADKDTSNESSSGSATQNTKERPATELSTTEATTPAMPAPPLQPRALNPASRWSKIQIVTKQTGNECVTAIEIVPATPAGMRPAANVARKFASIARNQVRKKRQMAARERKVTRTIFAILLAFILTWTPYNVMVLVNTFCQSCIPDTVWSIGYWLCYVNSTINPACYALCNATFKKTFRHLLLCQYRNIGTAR
The test can be described thus: mAChR M4 cell-based functional assay: calcium mobilization (Fluo-4, FDSS), potentiation of EC20 acetylcholine response in hM4-Gqi5 CHO-K1 cells. Particulars: human M4; for Emax at 30 µM: CHO-K1, % ACh maximum at 30 μM; for pEC50: potentiation of EC20 acetylcholine response, calcium mobilization. The procedure, abridged:
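CHO-K1 cells stably co-expressing human M4 and chimeric Gqi5, loaded with Fluo-4 AM (50 min, 37 °C). Compounds in 11-point 1:3 series added first; EC20 acetylcholine added at 144 s and again at 230 s. Calcium read on FDSS at 1 Hz; EC50 and Emax from four-parameter logistic fit of potentiated EC20 response.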
On the technique in general: A change in cytosolic calcium serves as a functional read-out for many receptors and channels.

pEC50: −log10 of the molar value.

On to `Cc1c(N2CCc3ncc(-c4cnn(-c5ccccc5F)c4)cc3C2)nn2c(=O)cc(C(F)F)nc2c1C` [Compound 1-165, 2-(difluoromethyl)-7-(3-(1-(2-fluorophenyl)-1H-pyrazol-4-yl)-7,8-dihydro-1,6-naphthyridin-6(5H)-yl)-8,9-dimethyl-4H-pyrimido[1,2-b]pyridazin-4-one], for which the Emax at 30 µM amounted to 47%.

As for `Cc1cc(=O)n2nc(N3CCc4ncc(-c5c(C)nn(C)c5C)cc4C3)c(C)cc2n1` [Compound 1-218, 2,8-dimethyl-7-(3-(1,3,5-trimethyl-1H-pyrazol-4-yl)-7,8-dihydro-1,6-naphthyridin-6(5H)-yl)-4H-pyrimido[1,2-b] pyridazin-4-one], the Emax at 30 µM was 92% and the pEC50 is 6.10.

As to `Cc1ccc(-c2cnc3c(c2)CN(c2nn4c(=O)c(C)c(C)nc4cc2C)CC3)cn1` [Compound 1-83, 2,3,8-trimethyl-7-(3-(6-methylpyridin-3-yl)-7,8-dihydro-1,6-naphthyridin-6(5H)-yl)-4H-pyrimido[1,2-b]pyridazin-4-one], the Emax at 30 µM was found to be 87% and the pEC50 is 6.68.

Consider `Cc1cc2nc(C3CC3)cc(=O)n2nc1N1CCc2ncc(N3CCCn4nccc43)cc2C1` [Compound 2-15, 2-cyclopropyl-7-(3-(6,7-dihydropyrazolo[1,5-a]pyrimidin-4(5H)-yl)-7,8-dihydro-1,6-naphthyridin-6(5H)-yl)-8-methyl-4H-pyrimido[1,2-b]pyridazin-4-one], for which the Emax at 30 µM amounted to 85% and the pEC50 was 8.15.

In the case of `COc1cccc(C2CN(c3cnc4c(c3)CN(c3nn5c(=O)ccnc5cc3C)CC4)CCO2)c1` (stereo not shown) [Compound 2-84, 7-(3-(2-(3-methoxyphenyl)morpholino)-7,8-dihydro-1,6-naphthyridin-6(5H)-yl)-8-methyl-4H-pyrimido[1,2-b]pyridazin-4-one], the Emax at 30 µM is 64% and the negative-log EC50 (pEC50) was 5.72.

As to `Cc1cc(N)ncc1-c1cnc2c(c1)CN(c1nn3c(=O)ccnc3cc1C)CC2` [Compound 1-404, 7-(3-(6-amino-4-methylpyridin-3-yl)-7,8-dihydro-1,6-naphthyridin-6(5H)-yl)-8-methyl-4H-pyrimido[1,2-b]pyridazin-4-one], the Emax at 30 µM is 97% and the pEC50 was 6.78.

`Cc1cc2nccc(=O)n2nc1N1CCc2ncc(-c3ccc(F)nc3F)cc2C1` [Compound 1-318, 7-(3-(2,6-difluoropyridin-3-yl)-7,8-dihydro-1,6-naphthyridin-6(5H)-yl)-8-methyl-4H-pyrimido [1,2-b]pyridazin-4-one]: the Emax at 30 µM turned out to be 55% and the pEC50 is 5.62.

Turning to `Cc1ccc(-c2cnc3c(c2)CN(c2nn4c(=O)cc(C)nc4cc2C)CC3)c(C)c1` [Compound 1-292, 7-(3-(2,4-dimethylphenyl)-7,8-dihydro-1,6-naphthyridin-6(5H)-yl)-2,8-dimethyl-4H-pyrimido[1,2-b]pyridazin-4-one], the Emax at 30 µM worked out at 92% and the pEC50 is 6.32.

`Cc1cc2ncc(N3CCOCC3)c(=O)n2nc1N1CCc2ncc(C(F)(F)F)cc2C1` [Compound 1-19, 8-Methyl-3-morpholino-7-(3-(trifluoromethyl)-7,8-dihydro-1,6-naphthyridin-6(5H)-yl)-4H-pyrimido[1,2-b]pyridazin-4-one]: the Emax at 30 µM amounted to 70% and the pEC50 was 6.95.

Consider `Cc1c(N2CCc3ncc(-c4cncnc4)cc3C2)nn2c(=O)cc(C(F)F)nc2c1C` [Compound 1-159, 2-(difluoromethyl)-8,9-dimethyl-7-(3-(pyrimidin-5-yl)-7,8-dihydro-1,6-naphthyridin-6(5H)-yl)-4H-pyrimido[1,2-b]pyridazin-4-one], for which the Emax at 30 µM is 86% and the pEC50 was 5.51.

`Cc1c(C2CC2)c(N2CCc3ncc(C(F)(F)F)cc3C2)nn2c(=O)ccnc12` [Compound 1-111, 8-cyclopropyl-9-methyl-7-(3-(trifluoromethyl)-7,8-dihydro-1,6-naphthyridin-6(5H)-yl)-4H-pyrimido[1,2-b]pyridazin-4-one]: the Emax at 30 µM came to 61% and the pEC50 was 5.61.

Take `COCc1cc(=O)n2nc(N3CCc4ncc(-c5ccco5)cc4C3)c(C)cc2n1` [Compound 1-371, 7-(3-(furan-2-yl)-7,8-dihydro-1,6-naphthyridin-6(5H)-yl)-2-(methoxymethyl)-8-methyl-4H-pyrimido[1,2-b]pyridazin-4-one]: the Emax at 30 µM was found to be 92% and the negative logarithm of the EC50 (pEC50) was 6.85.

`Cc1cc2nc(C(F)F)cc(=O)n2nc1N1CCc2ncc(Nc3ccnn3C)cc2C1` [Compound 2-27, 2-(difluoromethyl)-8-methyl-7-(3-((1-methyl-1H-pyrazol-5-yl)amino)-7,8-dihydro-1,6-naphthyridin-6(5H)-yl)-4H-pyrimido[1,2-b]pyridazin-4-one]: the Emax at 30 µM worked out at 86% and the pEC50 is 7.39.

With `Cc1cc2nccc(=O)n2nc1N1CCc2ncc(N3CCOc4cc(F)ccc43)cc2C1` [Compound 2-56, 7-(3-(7-fluoro-2,3-dihydro-4H-benzo[b][1,4]oxazin-4-yl)-7,8-dihydro-1,6-naphthyridin-6(5H)-yl)-8-methyl-4H-pyrimido[1,2-b]pyridazin-4-one], the Emax at 30 µM was determined as 98% and the pEC50 was 7.85.

Take `Cc1cc2nc(C(C)(C)O)cc(=O)n2nc1N1CCc2ncc(C(F)(F)F)cc2C1` [Compound 1-195, 2-(2-hydroxypropan-2-yl)-8-methyl-7-(3-(trifluoromethyl)-7,8-dihydro-1,6-naphthyridin-6(5H)-yl)-4H-pyrimido[1,2-b] pyridazin-4-one]: the Emax at 30 µM worked out at 82% and the pEC50 is 6.73.

Turning to `Cc1cc(=O)n2nc(N3CCc4ncc(N5CCCn6nc(C)cc65)cc4C3)c(C)cc2n1` [Compound 2-21, 2,8-dimethyl-7-(3-(2-methyl-6,7-dihydropyrazolo[1,5-a]pyrimidin-4(5H)-yl)-7,8-dihydro-1,6-naphthyridin-6(5H)-yl)-4H-pyrimido[1,2-b]pyridazin-4-one], the Emax at 30 µM worked out at 87% and the negative-log EC50 (pEC50) is 7.43.

Turning to `Cc1cc2nccc(=O)n2nc1N1CCc2ncc(Nc3ccccc3F)cc2C1` [Compound 2-98, 7-(3-((2-fluorophenyl)amino)-7,8-dihydro-1,6-naphthyridin-6(5H)-yl)-8-methyl-4H-pyrimido[1,2-b]pyridazin-4-one], the Emax at 30 µM was determined as 90% and the pEC50 was 7.72.

Turning to `Cc1c(N2CCc3ncc(-c4cncc(C(F)(F)F)c4)cc3C2)nn2c(=O)ccnc2c1C` [Compound 1-102, 8,9-dimethyl-7-(3-(5-(trifluoromethyl)pyridin-3-yl)-7,8-dihydro-1,6-naphthyridin-6(5H)-yl)-4H-pyrimido[1,2-b]pyridazin-4-one], the Emax at 30 µM is 83% and the pEC50 is 6.13.

For `COc1ccsc1-c1cnc2c(c1)CN(c1nn3c(=O)cc(C)nc3cc1C)CC2` [Compound 1-298, 7-(3-(3-methoxythiophen-2-yl)-7,8-dihydro-1,6-naphthyridin-6(5H)-yl)-2,8-dimethyl-4H-pyrimido[1,2-b]pyridazin-4-one], the Emax at 30 µM is 85% and the pEC50 is 7.08.

Broadly, the Emax is the greatest response seen or fitted, relative to the assay's reference. By pEC50 is commonly meant the negative decadic logarithm of the EC50, by convention in mol/L.
